Reference: ChEMBL document CHEMBL6096696, “Structure-Activity Relationship Studies of an Autophagy Inhibitor That Targets the ATG14L-Beclin1 Protein-Protein Interaction Reveal Modifications That Improve Potency and Solubility and Maintain Selectivity” (J Med Chem, 2025)
Calls of active or inactive are those of the source. The rule behind the calls is not given here.

What was measured:
HeLa [1] = assay: Cytotoxicity against human HeLa cells expressing eGFP-LC3 at 100 uM; format: functional, cell-based
HEK293T [2] = assay: Inhibition of C-terminal Nano-luc tagged ATG14L/C-terminal Halo-tagged Beclin 1 (unknown origin) PPI tranfected with HEK293T cells using […] at 100 uM incubated for 24 hrs by […] assay relative to control; format: cell-based; conditions: Homo sapiens, values are per cent of control
A549 [3] = assay: Inhibition of autophagy in human A549 cells assessed as increase in fluorescence at 100 uM preincubated with DQ-BSA for 1 hr followed by compound addition and measured after 4 hrs by Hoechst 33342 staining based automated fluorescence microscopy analysis; format: functional, cell-based
[4] = Inhibition of C-terminal Nano-luc tagged UVRAG/C-terminal Halo-tagged Beclin 1 (unknown origin) PPI tranfected with HEK293T cells using […] incubated for 24 hrs by […] assay; format: cell-based, Homo sapiens
HEK293T [5] = assay: Inhibition of C-terminal Nano-luc tagged UVRAG/C-terminal Halo-tagged Beclin 1 (unknown origin) PPI tranfected with HEK293T cells using […] at 100 uM incubated for 24 hrs by […] assay relative to control; format: cell-based; conditions: Homo sapiens, values are per cent of control
[6] = Inhibition of C-terminal Nano-luc tagged ATG14L/C-terminal Halo-tagged Beclin 1 (unknown origin) PPI tranfected with HEK293T cells using […] incubated for 24 hrs by […] assay; format: cell-based, Homo sapiens
[7] = Selectivity ratio of inhibition of C-terminal Nano-luc tagged UVRAG/C-terminal Halo-tagged Beclin 1 (unknown origin) PPI tranfected with HEK293T cells to inhibition of C-terminal Nano-luc tagged ATG14L/C-terminal Halo-tagged Beclin 1 (unknown origin) PPI tranfected with HEK293T cells
[8] = Kinetic aqueous solubility of compound in PBS at pH 7.4 by absorbance based analysis; format: physicochemical; conditions: read-out: Kinetic_solubility
[9] = target: Beclin 1-associated autophagy-related key regulator (Homo sapiens) (UniProt Q6ZNE5); assay: Induction of stabilization of ATG14L in human A549 cells assessed as increase in melting temperature at 100 uM incubated for 24 hrs by CETSA method; format: cell-based
Beclin 1-associated autophagy-related key regulator (Homo sapiens), sequence (Q6ZNE5 whole entry): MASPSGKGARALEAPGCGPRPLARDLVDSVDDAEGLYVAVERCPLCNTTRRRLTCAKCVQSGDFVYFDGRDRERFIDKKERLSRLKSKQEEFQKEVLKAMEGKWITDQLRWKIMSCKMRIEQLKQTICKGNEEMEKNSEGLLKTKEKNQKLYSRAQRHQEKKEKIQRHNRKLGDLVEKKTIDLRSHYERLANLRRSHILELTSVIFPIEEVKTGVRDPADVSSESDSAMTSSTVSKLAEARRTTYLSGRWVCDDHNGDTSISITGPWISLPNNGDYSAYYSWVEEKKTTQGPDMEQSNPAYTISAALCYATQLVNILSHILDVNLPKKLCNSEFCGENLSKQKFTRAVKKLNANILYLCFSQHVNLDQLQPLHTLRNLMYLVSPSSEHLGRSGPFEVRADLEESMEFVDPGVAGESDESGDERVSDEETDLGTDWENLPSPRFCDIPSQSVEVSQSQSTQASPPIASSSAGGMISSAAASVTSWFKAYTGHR

HeLa [10] = assay: Inhibition of autophagy in human HeLa cells expressing eGFP-LC3 assessed as decrease in GFP puncta/cell at 100 uM preincubated for 20 hrs followed by chloroquine addition and measured after 4 hrs by Hoechst 33342 staining based automated fluorescence microscopy analysis; format: functional; conditions: time 24.0 hrs
HeLa [11] = assay: Inhibition of autophagy in human HeLa cells expressing eGFP-LC3 assessed as increase in LC3-II at 100 uM preincubated for 20 hrs followed by chloroquine addition and measured after 4 hrs by Hoechst 33342 staining based automated fluorescence microscopy analysis; format: functional, cell-based; conditions: time 24.0 hrs
A549 [12] = assay: Inhibition of autophagy in human A549 cells assessed as increase in fluorescence at 100 uM measured after 4 hrs by Hoechst 33342 staining based […] microscopy analysis; format: functional, cell-based

With `CCCN1C(=O)COc2ccc(-c3cccc(C)c3C)cc21` the Activity (HeLa [1]) was “Active”, the residual binding, % of control (HEK293T [2]) was 63% and the inhibition (A549 [3]) was “Active”. For the same compound, the IC50 [4] was 42.2 µM, the residual binding, % of control (HEK293T [5]) was 77.7% and the IC50 [6] was 32.3 µM. It also gave a Selectivity ratio [7] of 1.23 and a solubility kinetic [8] of over 100 µM.
For `CCCN1C(=O)COc2ccc(S(=O)(=O)Nc3cccc(C)c3C)cc21`, the residual binding, % of control (HEK293T [2]) was 72.3%, the Activity [9] was “Active” and the inhibition (A549 [3]) was “Active; Compound Showed Normal Functioning Of Lysosomes And Endosomal Trafficking”. The inhibition (HeLa [10]) was “Active; Compared With Chloroquine And Compound 1E”, the IC50 [6] was 56.3 µM and the solubility kinetic [8] was over 100 µM. For the same compound, the inhibition (HeLa [11]) was “Active” and the inhibition (A549 [12]) was “Active”.
